Experimental data from patent US20190256626A1, “SURFACTANTS AND METHODS FOR MAKING SAME” (REGENTS OF THE UNIVERSITY OF MINNESOTA, priority 2016, published 2019).
Marks after values point to notes of the source that are not given here.

Columns and labels:
[1] = TGA of Dispersions A-J (oxaprozin or 5-methyl-5-phenylhydantoin) and pure drugs; assay type: physicochemical; conditions: pure drugs
Description: (§1) Thermogravimetric analysis (TGA) of Dispersions A-J was performed using a Q500 instrument from TA Instruments. The decomposition temperature (Td) at 5% was recorded for each dispersion and Td,1% was recorded for the pure drugs. Td,5% was recorded for the dispersions due to the hydrophilic properties of the surfactants, which required removal of surface moisture before the materials began to decompose. Differential Scanning Calorimetry (DSC) experiments were performed on Dispersions A-J and pure oxaprozin and 5-methyl-5-phenylhydantoin using a Discovery Series instrument from TA Instruments. Each dispersion was heated twice to Td,5%. The pure compounds were heated twice to Td,1%. The heating rate in all experiments was 10° C./min. […] These values approached the Tg value of pure surfactants (135.76° C.) as the ratio of the molecular weight of the poly(N-isopropylacrylamide) hydrophilic segment in kDa/mol to (m+1) increased. Generally, the dispersions including oxaprozin yielded lower Tg values. Without being bound by theory, the lower Tg values might be attributable to the larger size of oxaprozin, which would further disrupt surfactant packing.

[2] = DSC of Dispersions A-J (oxaprozin or 5-methyl-5-phenylhydantoin) and pure drugs; assay type: physicochemical; conditions: heating rate 10° C./min
Description: as §1

Row | Compound | Td,1% [1] | First Heat Tg [2] [°C]
1 | CC1(c2ccccc2)NC(=O)NC1=O (stereo not shown) [5-methyl-5-phenylhydantoin] | 188* ° C. | 134
2 | O=C(O)CCc1nc(-c2ccccc2)c(-c2ccccc2)o1 [Oxaprozin, oxaprozin] | 206* ° C. | 21
